Measurements published in US20060269924A1, “Modulation of telomere-initiated cell signaling” (TRUSTEES OF BOSTON UNIVERSITY, priority 2003, published 2006).
{P} = phosphate

Experiments:
S91 mouse melanoma cells = experiment: Melanin content of S91 melanoma cells; format: cell-based; details: 100 μM
Procedure: Cultures of S91 mouse melanoma cells (100,000 cells/38 cm^2) were treated with 100 μM pTpT or phosphorothioate pTpT (pTspT) (FIG. 4) or 40 μM 11mer-1 or the phosphorothioate 11mer-1 (11mer-1-S) (FIG. 5) for 6 days and were then collected, counted and assayed for melanin content.
(§1) Duplicate cultures of S91 cells (100,000 cells/39 cm^2) were either sham-irradiated or irradiated with 5 mJ/cm^2 solar-simulated light from a 1 kW xenon arc solar-simulator (XMN 1000-21, Optical Radiation, Azuza, Calif.) metered at 285±5 nm using a research radiometer (model IL1700A, International Light, Newburyport, Mass.). Two sham-irradiated plates were then supplemented with 100 μM pTspT and two irradiated cultures were similarly treated with pTspT. After one week, cells were collected, counted and analyzed for melanin content by dissolving the cell pellets in 1 N NaOH and measuring the optical density at 475 nm. […] However, this response was blocked by the addition of pTspT (FIG. 6). In addition, the constitutive pigmentation of these cells was reduced by the pTspT in the sham-irradiated cultures, similar to the data presented in FIGS. 4 and 5.

S91 cells = experiment: UV-induced melanogenesis in S91 cells; format: cell-based, mouse; details: 5 mJ/cm^2 solar-simulated light, 100 μM, one week
Procedure: as §1

[1] = test system: HT-1080 human fibrosarcoma cells; experiment: Clonogenic assay; format: cell-based; details: HT-1080, 40 μM for one week, then replated 2 weeks without treatment
Procedure: Cells were treated with diluent, 40 μM T-oligo or complementary oligo for one week, and then assayed. FIG. 15a: Appearance of stained dishes. FIG. 15b: Quantification of clonogenic capacity. Colonies of triplicate cultures were counted and plotted as percentage of diluent treated control.
Human fibrosarcoma cells were treated with diluent alone, 40 μM T-oligo or 40 μM complementary oligo for one week and were then trypsinized and counted. 300 cells were seeded into 60 mm culture dishes in triplicate and then incubated in complete medium for 2 weeks with medium changed twice per week. Subsequently, the cells were fixed for 5 min in 100% methanol. The methanol was then removed and the culture dishes were rinsed briefly with water. The colonies were stained for 10 min in 4% (w/v) methylene blue solution in PBS, washed once again with water, and then counted.
To determine the long-term effect of T-oligo treatment on cell growth, HT-1080 human fibrosarcoma cells were treated with either diluent alone, 40 μM T-oligo or 40 μM complementary control oligo for one week and then an equal number of cells were replated and medium was changed twice per week for 2 weeks with no further treatment, and then stained with methylene blue (FIG. 15a).

[2] = test system: HT-1080 fibrosarcoma cells; experiment: Telomere length (mean TRF length) assay; format: cell-based, human; details: HT-1080 cells, 40 μM, 4 days
Procedure: Cells were treated as described in FIG. 13a. Lanes 1, 2, 3 contain genomic DNA from cells treated with diluent (D), T-oligo (T), or complementary oligo (C). Lanes 4 and 5 contain high (H) molecular and low (L) molecular weight standard telomeric DNA.
HT-1080 fibrosarcoma cells were treated with diluent, 40 μM T-oligo or 40 μM complementary oligo for 4 days and then the genomic DNA was isolated using the DNeasy Tissue Kit (Qiagen, Valencia, Calif.). Telomere length was determined using the Telo TTAGGG Telomere Length Assay (Roche Molecular Biochemicals, Indianapolis, Ind.) following the protocol supplied by the manufacturer. […] Terminal restriction fragments (TRF) were detected by chemiluminescence. The mean TRF length was calculated by scanning the exposed X-ray film with a densitometer and calculated as previously described (Harley et al. [1990] Telomeres shorten during ageing of human fibroblasts. Nature 345, 458-460).
To determine the affect of T-oligos on the mean telomere length (MTL) in HT-1080 cells, cells were analyzed after treatment with T-oligo for 4 days which corresponded to the time that the senescent phenotype was readily observed. […] The less than 100 bp difference in calculated MTL is within the range of experimental variation and is not significant.

[3] = test system: human fibrosarcoma HT-1080 cells; experiment: SA-β-Gal staining, HT-1080 cells; format: cell-based; details: HT-1080 cells, 40 μM, 4 days
Procedure: (§2) FIG. 13a: Exposure to T-oligo increases SA-β-Gal activity. HT-1080 cells were treated for 4 days with diluent alone or 40 μM T-oligo or the complementary control oligo, then stained and assayed for SA-β-Gal activity. FIG. 13b: Quantitative analysis of SA-β-Gal positive cells. Cells expressing SA-β-Gal activity were counted and presented as percentage of total cells in the cultures. Averages and standard deviations were calculated from 3 representative fields from each of 3 independent experiments. FIG. 13c: Effect of T-oligo on cell proliferation. Cells were treated for 4 days as in FIG. 12 and assayed for DNA synthesis by BrdU incorporation. FIG. 13d: Quantitative analysis of BrdU incorporation. Dark black nuclei indicate BrdU incorporated into nuclear DNA. BrdU positive cells were calculated and presented as percentage of total cells in the cultures. Averages and standard deviations were calculated from 3 representative fields from each of 3 independent experiments. FIG. 13e: Effect of T-oligo on pRb phosphorylation. Cells were treated as in FIG. 13a and were then collected for protein analysis by western blot using 30 μg total protein and probed for pRb-ser780*, ser795* and ser807/811* (pRb phosphorylated at serine 780, serine 795 and serine 807/811 respectively). Lanes D, T and C contain protein samples from cells treated with diluent, T-oligo and complementary oligo respectively. β-actin was used as a loading control.
Parallel cultures were treated as described in FIG. 13a. Cells were then washed once with PBS and refed with complete medium without additional treatment for 24 hours or 48 hours. FIG. 14a: SA-β-Gal activity. Cells were stained for SA-β-Gal activity. […]
TRF2^DN has been reported to induce a senescent phenotype in human fibrosarcoma HT-1080 cells. To determine whether exposure to the telomere 3′ overhang DNA (T-oligo) also induces senescence in these cells, HT-1080 cells (American Type Culture Collection; Manassas, Va.) were treated with either diluent alone, T-oligo or the complementary oligo as a control, for 4 days and then assessed for SA-β-Gal activity. […]

[4] = test system: p95 phosphorylated at serine 343; experiment: p95 serine 343 phosphorylation after tankyrase siRNA, western blotting and densitometry; format: cell-based, human; details: 24 hours
Procedure: Paired cultures of human fibroblasts were treated once with tankyrase siRNA, with a non-specific siRNA (control) or were mock transfected as a second control. […] After an additional 24 hours, cells were collected and processed for western blotting using an antibody specific for p95 phosphorylated at serine 343, indicating p95 modification by activated ATM kinase. The film was then subjected to densitometry and the diluent control for each group of cells was set at 1.0 in arbitrary units (FIG. 19). As expected, in cells with normal tankyrase levels the T-oligo treated cells had twice the amount of phosphorylated p95, while the control oligo-treated or diluent-treated cells had only a 30-40% increase.

[5] = test system: HT-1080 fibrosarcoma cells; experiment: BrdU incorporation assay, HT-1080 cells; format: cell-based, human; details: HT-1080 cells, 40 μM, 4 days
Procedure: as §2
Parallel cultures were treated as described in FIG. 13a. Cells were then washed once with PBS and refed with complete medium without additional treatment for 24 hours or 48 hours. FIG. 14a: SA-β-Gal activity. […]
HT-1080 fibrosarcoma cells cultured on Permanox chamber slides were treated with diluent, 40 μM T-oligo or 40 μM complementary oligo for 4 days and DNA synthesis was assayed using 5-bromo-2′-deoxy-uridine (BrdU) Labeling and Detection Kit II (Roche Molecular Biochemicals, Indianapolis, Ind.) following the protocol supplied by the manufacturer. […] After incubation with anti-mouse-Ig-alkaline phosphatase, the color reaction was detected by light microscopy. […]

[6] = test system: T-oligo-induced total p53, p21, p53 serine 15 phosphorylation; experiment: PARP inhibitor pretreatment and T-oligo responses, western blot; format: cell-based; details: fibroblasts, 40 μM T-oligo, 48 hours; 3AB 2.5 mM or IQ 100 μM
Procedure: To investigate the role of PARPs in responses to T-oligo, fibroblasts were pretreated with one of two different PARP inhibitors, 3-aminobenzamide (3AB, 2.5 mM) or […] (IQ, 100 μM) for 2 hours before addition of 40 μM T-oligo or an equal amount of diluent as a control. An additional dose of each inhibitor was given to the cells 4 hours after addition of the T-oligo or diluent (D). Fibroblasts were treated with 3AB and T-oligo, then collected 48 hours later for western blot. T-oligo-induced upregulation of total p53, p21, phosphorylation of p53 serine 15 (indicating p53 activation) were all reduced in the presence of 3AB (FIG. 17A).

[7] = test system: p53 serine 15 phosphorylation and p21 induction in response to TRF2^DN; experiment: PARP inhibitors and response to TRF2^DN, western analysis; format: cell-based; details: neonatal fibroblasts, AdTRF2DN, 3 days; 3AB 2.5 mM or IQ 100 μM
Procedure: The graphs show densitometric readings of the western blots, with diluent control set at 100%. FIG. 9f: Lane 1, diluent, GFP; lane 2, diluent TRF2DN; lane 3, 3AB, GFP; lane 4, 3AB, TRF2DN; lane 5, IQ, GFP; lane 6, IQ, TRF2DN.
Neonatal fibroblasts were treated with AdTRF2DN or AdGFP as a negative control. Two hours before infection, cells were treated with either diluent 3AB (2.5 mM) or IQ (100 μM). After 3 days cells were collected for western analysis for the c-myc-tagged TRF2DN (to confirm infection), p53 serine 15 phosphorylation and p21 induction.

Compound: pTspT
- constitutive pigmentation (S91 mouse melanoma cells; 6 days): reduced the constitutive pigmentation
- melanogenesis (melanin content) (S91 mouse melanoma cells; 6 days): did not
- constitutive pigmentation (S91 mouse melanoma cells; sham-irradiated, one week): reduced
- UV-induced doubling of melanin content (S91 cells): blocked

Compound: pCTAACCCTAAC (DNA, 5' {P}, backbone and methylation of C not given here; listed as Homo sapiens) [Oligonucleotide 11mer-2, reference compound]
- clonogenic capacity [1]: 90.5±9.4 % of diluent treated control
- mean telomere length (MTL) [2]: 5.51 kb
- SA-β-Gal positive cells [3]: 6±3%
- increase in phosphorylated p95 ([4]; human fibroblasts with normal tankyrase levels): 30-40%
- level of p95 phosphorylation (densitometry, diluent control set at 1.0) ([4]; tankyrase knockdown group (tankyrase siRNA)): 1.3 arbitrary units
- BrdU incorporation (BrdU positive cells) [5]: 85±10%

Compound: pTpT
- melanogenesis (melanin content) (S91 mouse melanoma cells; 6 days): stimulated melanogenesis

Compound: NC(=O)c1cccc(N)c1 [Oligonucleotide 3AB, 3-aminobenzamide]
- T-oligo-induced phosphorylation of p53 serine 15 [6]: reduced
- T-oligo-induced upregulation of p21 [6]: reduced
- T-oligo-induced upregulation of total p53 [6]: reduced
- p21 induction in response to TRF2^DN [7]: reduced
- p53 phosphorylation in response to TRF2^DN [7]: reduced
